Source: US20230340012A1, “NATURAL AND SYNTHETIC COMPOUNDS FOR TREATING CANCER AND OTHER DISEASES” (PACIFIC ARROW LIMITED, priority 2009, published 2023)

What follows are compounds tested on cancer cells (assay: MTT cytotoxic assay of esterification products (Cytotoxicity activity)). Settings: E4A esterified with Acetyl chloride (Acy = Acetyl), compounds isolated with HPLC.
Type: cell-based, human
How it was run: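 Cytotoxicity was read by MTT (Carmichael method, modified), with cells seeded 24 h ahead of treatment. Sixteen human cancer lines spanning bone, lung, bladder, ovary, colon, pancreas, prostate, skin, mouth, kidney, breast, liver, brain, leukemia and cervix were used. Test samples were acyl chloride esterification products of triterpenes, as mixtures or HPLC-purified compounds.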
For `CC(=O)OCC1(C)C(O)CCC2(C)C1CCC1(C)C2CC=C2C3CC(C)(C)C(O)C(O)C3(CO)C(O)CC21C` (stereo not shown) [Compound H1], the Cytotoxicity activity was “moderate”.
`CC(=O)OCC12C(O)CC3(C)C(=CCC4C5(C)CCC(O)C(C)(CO)C5CCC43C)C1CC(C)(C)C(O)C2O` (stereo not shown) [Compound H2] was tested, and the Cytotoxicity activity was “moderate”.
With `CC(=O)OCC1(C)C(O)CCC2(C)C1CCC1(C)C2CC=C2C3CC(C)(C)C(O)C(O)C3(COC(C)=O)C(O)CC21C` (stereo not shown) [Compound H3] the Cytotoxicity activity was “strong”.
For `CC(=O)OCC1(C)C(O)CCC2(C)C1CCC1(C)C2CC=C2C3CC(C)(C)C(OC(C)=O)C(O)C3(COC(C)=O)C(O)CC21C` (stereo not shown) [Compound H4], the Cytotoxicity activity was “moderate”.
In the case of `CC(=O)OCC1(C)C(O)CCC2(C)C1CCC1(C)C2CC=C2C3CC(C)(C)C(O)C(OC(C)=O)C3(COC(C)=O)C(O)CC21C` (stereo not shown) [Compound H5], the Cytotoxicity activity is reported as “moderate”.
For `CC(=O)OCC1(C)C(OC(C)=O)CCC2(C)C1CCC1(C)C2CC=C2C3CC(C)(C)C(O)C(O)C3(COC(C)=O)C(O)CC21C` (stereo not shown) [Compound H6], the Cytotoxicity activity was “moderate”.
`CC(=O)OCC1(C)C(O)CCC2(C)C1CCC1(C)C2CC=C2C3CC(C)(C)C(O)C(O)C3(COC(C)=O)C(OC(C)=O)CC21C` (stereo not shown) [Compound H7] was tested, and the Cytotoxicity activity was “moderate”.
For `CC(=O)OCC1(C)C(O)CCC2(C)C1CCC1(C)C2CC=C2C3CC(C)(C)C(OC(C)=O)C(OC(C)=O)C3(COC(C)=O)C(O)CC21C` (stereo not shown) [Compound H8], the Cytotoxicity activity was “weak”.
In the case of `CC(=O)OCC1(C)C(OC(C)=O)CCC2(C)C1CCC1(C)C2CC=C2C3CC(C)(C)C(O)C(OC(C)=O)C3(COC(C)=O)C(O)CC21C` (stereo not shown) [Compound H9], the Cytotoxicity activity is reported as “weak”.
With `CC(=O)OCC1(C)C(OC(C)=O)CCC2(C)C1CCC1(C)C2CC=C2C3CC(C)(C)C(O)C(O)C3(COC(C)=O)C(OC(C)=O)CC21C` (stereo not shown) [Compound H10] the Cytotoxicity activity was “weak”.
With `CC(=O)OCC1(C)C(OC(C)=O)CCC2(C)C1CCC1(C)C2CC=C2C3CC(C)(C)C(OC(C)=O)C(O)C3(COC(C)=O)C(O)CC21C` (stereo not shown) [Compound H11] the Cytotoxicity activity was “weak”.
`CC(=O)OCC1(C)C(O)CCC2(C)C1CCC1(C)C2CC=C2C3CC(C)(C)C(O)C(OC(C)=O)C3(COC(C)=O)C(OC(C)=O)CC21C` (stereo not shown) [Compound H12] was tested, and the Cytotoxicity activity was “weak”.
With `CC(=O)OCC1(C)C(O)CCC2(C)C1CCC1(C)C2CC=C2C3CC(C)(C)C(OC(C)=O)C(O)C3(COC(C)=O)C(OC(C)=O)CC21C` (stereo not shown) [Compound H13] the Cytotoxicity activity was “weak”.
For `CC(=O)OCC1(C)C(OC(C)=O)CCC2(C)C1CCC1(C)C2CC=C2C3CC(C)(C)C(O)C(OC(C)=O)C3(COC(C)=O)C(O)CC21C` (stereo not shown) [Compound H14], the Cytotoxicity activity was “weak”.
With `CC(=O)OCC1(C)C(OC(C)=O)CCC2(C)C1CCC1(C)C2CC=C2C3CC(C)(C)C(OC(C)=O)C(OC(C)=O)C3(COC(C)=O)C(O)CC21C` (stereo not shown) [Compound H15] the Cytotoxicity activity was “weak”.
`CC(=O)OCC1(C)C(O)CCC2(C)C1CCC1(C)C2CC=C2C3CC(C)(C)C(OC(C)=O)C(OC(C)=O)C3(COC(C)=O)C(OC(C)=O)CC21C` (stereo not shown) [Compound H16] was tested, and the Cytotoxicity activity was “weak”.
`CC(=O)OCC1(C)C(OC(C)=O)CCC2(C)C1CCC1(C)C2CC=C2C3CC(C)(C)C(OC(C)=O)C(O)C3(COC(C)=O)C(OC(C)=O)CC21C` (stereo not shown) [Compound H17] was tested, and the Cytotoxicity activity was “weak”.
For `CC(=O)OCC1(C)C(OC(C)=O)CCC2(C)C1CCC1(C)C2CC=C2C3CC(C)(C)C(O)C(OC(C)=O)C3(COC(C)=O)C(OC(C)=O)CC21C` (stereo not shown) [Compound H18], the Cytotoxicity activity was “weak”.
With `CC(=O)OCC1(C)C(OC(C)=O)CCC2(C)C1CCC1(C)C2CC=C2C3CC(C)(C)C(OC(C)=O)C(OC(C)=O)C3(COC(C)=O)C(OC(C)=O)CC21C` (stereo not shown) [Compound H19] the Cytotoxicity activity was “none”.
`CC(=O)OCC12C(O)CC3(C)C(=CCC4C5(C)CCC(O)C(C)(CO)C5CCC43C)C1CC(C)(C)C(OC(C)=O)C2OC(C)=O` (stereo not shown) [Compound H20] was tested, and the Cytotoxicity activity was “moderate”.
In the case of `CC(=O)OCC1(C)C(O)CCC2(C)C1CCC1(C)C2CC=C2C3CC(C)(C)C(OC(C)=O)C(OC(C)=O)C3(CO)C(O)CC21C` (stereo not shown) [Compound H21], the Cytotoxicity activity is reported as “moderate”.
In the case of `CC(=O)OC1C(OC(C)=O)C2(CO)C(OC(C)=O)CC3(C)C(=CCC4C5(C)CCC(O)C(C)(CO)C5CCC43C)C2CC1(C)C` (stereo not shown) [Compound H22], the Cytotoxicity activity is reported as “moderate”.
In the case of `CC(=O)OC1C(OC(C)=O)C2(CO)C(O)CC3(C)C(=CCC4C5(C)CCC(OC(C)=O)C(C)(CO)C5CCC43C)C2CC1(C)C` (stereo not shown) [Compound H23], the Cytotoxicity activity is reported as “moderate”.
In the case of `CC(=O)OC1C(OC(C)=O)C2(CO)C(O)CC3(C)C(=CCC4C5(C)CCC(O)C(C)(CO)C5CCC43C)C2CC1(C)C` (stereo not shown) [Compound H24], the Cytotoxicity activity is reported as “moderate”.
`CC(=O)OCC12C(O)CC3(C)C(=CCC4C5(C)CCC(O)C(C)(CO)C5CCC43C)C1CC(C)(C)C(OC(C)=O)C2O` (stereo not shown) [Compound H25] was tested, and the Cytotoxicity activity was “moderate”.
`CC(=O)OCC12C(O)CC3(C)C(=CCC4C5(C)CCC(O)C(C)(CO)C5CCC43C)C1CC(C)(C)C(O)C2OC(C)=O` (stereo not shown) [Compound H26] was tested, and the Cytotoxicity activity was “moderate”.

Same assay, conditions: MTT cytotoxic assay, isolated esterification products of E4A
`CCC(CC)C(=O)OCC1(C)C(OC(=O)C(CC)CC)CCC2(C)C1CCC1(C)C2CC=C2C3CC(C)(C)C(OC(=O)C(CC)CC)C(O)C3(COC(=O)C(CC)CC)C(O)CC21C` (stereo not shown) [Compound E11] was tested, and the Cytotoxicity activity was “weak”.
In the case of `CCC(CC)C(=O)OCC1(C)C(O)CCC2(C)C1CCC1(C)C2CC=C2C3CC(C)(C)C(O)C(OC(=O)C(CC)CC)C3(COC(=O)C(CC)CC)C(OC(=O)C(CC)CC)CC21C` (stereo not shown) [Compound E12], the Cytotoxicity activity is reported as “weak”.
For `CCC(CC)C(=O)OCC1(C)C(O)CCC2(C)C1CCC1(C)C2CC=C2C3CC(C)(C)C(OC(=O)C(CC)CC)C(O)C3(COC(=O)C(CC)CC)C(OC(=O)C(CC)CC)CC21C` (stereo not shown) [Compound E13], the Cytotoxicity activity was “weak”.
`CCC(CC)C(=O)OCC1(C)C(OC(=O)C(CC)CC)CCC2(C)C1CCC1(C)C2CC=C2C3CC(C)(C)C(O)C(OC(=O)C(CC)CC)C3(COC(=O)C(CC)CC)C(O)CC21C` (stereo not shown) [Compound E14] was tested, and the Cytotoxicity activity was “weak”.
In the case of `CCC(CC)C(=O)OCC1(C)C(OC(=O)C(CC)CC)CCC2(C)C1CCC1(C)C2CC=C2C3CC(C)(C)C(OC(=O)C(CC)CC)C(OC(=O)C(CC)CC)C3(COC(=O)C(CC)CC)C(O)CC21C` (stereo not shown) [Compound E15], the Cytotoxicity activity is reported as “weak”.
In the case of `CCC(CC)C(=O)OCC1(C)C(O)CCC2(C)C1CCC1(C)C2CC=C2C3CC(C)(C)C(OC(=O)C(CC)CC)C(OC(=O)C(CC)CC)C3(COC(=O)C(CC)CC)C(OC(=O)C(CC)CC)CC21C` (stereo not shown) [Compound E16], the Cytotoxicity activity is reported as “weak”.
In the case of `CCC(CC)C(=O)OCC1(C)C(OC(=O)C(CC)CC)CCC2(C)C1CCC1(C)C2CC=C2C3CC(C)(C)C(OC(=O)C(CC)CC)C(O)C3(COC(=O)C(CC)CC)C(OC(=O)C(CC)CC)CC21C` (stereo not shown) [Compound E17], the Cytotoxicity activity is reported as “weak”.
In the case of `CCC(CC)C(=O)OCC1(C)C(OC(=O)C(CC)CC)CCC2(C)C1CCC1(C)C2CC=C2C3CC(C)(C)C(O)C(OC(=O)C(CC)CC)C3(COC(=O)C(CC)CC)C(OC(=O)C(CC)CC)CC21C` (stereo not shown) [Compound E18], the Cytotoxicity activity is reported as “weak”.
For `CCC(CC)C(=O)OCC1(C)C(OC(=O)C(CC)CC)CCC2(C)C1CCC1(C)C2CC=C2C3CC(C)(C)C(OC(=O)C(CC)CC)C(OC(=O)C(CC)CC)C3(COC(=O)C(CC)CC)C(OC(=O)C(CC)CC)CC21C` (stereo not shown) [Compound E19], the Cytotoxicity activity was “none”.
`CCC(CC)C(=O)OCC12C(O)CC3(C)C(=CCC4C5(C)CCC(O)C(C)(CO)C5CCC43C)C1CC(C)(C)C(OC(=O)C(CC)CC)C2OC(=O)C(CC)CC` (stereo not shown) [Compound E20] was tested, and the Cytotoxicity activity was “moderate”.
For `CCC(CC)C(=O)OCC1(C)C(O)CCC2(C)C1CCC1(C)C2CC=C2C3CC(C)(C)C(OC(=O)C(CC)CC)C(OC(=O)C(CC)CC)C3(CO)C(O)CC21C` (stereo not shown) [Compound E21], the Cytotoxicity activity was “moderate”.
With `CCC(CC)C(=O)OC1C(OC(=O)C(CC)CC)C2(CO)C(OC(=O)C(CC)CC)CC3(C)C(=CCC4C5(C)CCC(O)C(C)(CO)C5CCC43C)C2CC1(C)C` (stereo not shown) [Compound E22] the Cytotoxicity activity was “moderate”.
`CCC(CC)C(=O)OC1C(OC(=O)C(CC)CC)C2(CO)C(O)CC3(C)C(=CCC4C5(C)CCC(OC(=O)C(CC)CC)C(C)(CO)C5CCC43C)C2CC1(C)C` (stereo not shown) [Compound E23] was tested, and the Cytotoxicity activity was “moderate”.
For `CCC(CC)C(=O)OC1C(OC(=O)C(CC)CC)C2(CO)C(O)CC3(C)C(=CCC4C5(C)CCC(O)C(C)(CO)C5CCC43C)C2CC1(C)C` (stereo not shown) [Compound E24], the Cytotoxicity activity was “moderate”.
In the case of `CCC(CC)C(=O)OCC12C(O)CC3(C)C(=CCC4C5(C)CCC(O)C(C)(CO)C5CCC43C)C1CC(C)(C)C(OC(=O)C(CC)CC)C2O` (stereo not shown) [Compound E25], the Cytotoxicity activity is reported as “moderate”.
With `CCC(CC)C(=O)OCC12C(O)CC3(C)C(=CCC4C5(C)CCC(O)C(C)(CO)C5CCC43C)C1CC(C)(C)C(O)C2OC(=O)C(CC)CC` (stereo not shown) [Compound E26] the Cytotoxicity activity was “moderate”.
For `CCC(CC)C(=O)OCC12C(O)CC3(C)C(=CCC4C5(C)CCC(OC(=O)C(CC)CC)C(C)(CO)C5CCC43C)C1CC(C)(C)C(O)C2O` (stereo not shown) [Compound E27], the Cytotoxicity activity was “moderate”.
`CCC(CC)C(=O)OCC12C(OC(=O)C(CC)CC)CC3(C)C(=CCC4C5(C)CCC(O)C(C)(CO)C5CCC43C)C1CC(C)(C)C(O)C2O` (stereo not shown) [Compound E28] was tested, and the Cytotoxicity activity was “moderate”.
With `CCC(CC)C(=O)OCC1(C)C(O)CCC2(C)C1CCC1(C)C2CC=C2C3CC(C)(C)C(OC(=O)C(CC)CC)C(O)C3(CO)C(O)CC21C` (stereo not shown) [Compound E29] the Cytotoxicity activity was “moderate”.
In the case of `CCC(CC)C(=O)OCC1(C)C(O)CCC2(C)C1CCC1(C)C2CC=C2C3CC(C)(C)C(O)C(OC(=O)C(CC)CC)C3(CO)C(O)CC21C` (stereo not shown) [Compound E30], the Cytotoxicity activity is reported as “moderate”.
For `CCC(CC)C(=O)OCC1(C)C(OC(=O)C(CC)CC)CCC2(C)C1CCC1(C)C2CC=C2C3CC(C)(C)C(O)C(O)C3(CO)C(O)CC21C` (stereo not shown) [Compound E31], the Cytotoxicity activity was “moderate”.
`CCC(CC)C(=O)OCC1(C)C(O)CCC2(C)C1CCC1(C)C2CC=C2C3CC(C)(C)C(O)C(O)C3(CO)C(OC(=O)C(CC)CC)CC21C` (stereo not shown) [Compound E32] was tested, and the Cytotoxicity activity was “moderate”.
For `C/C=C(/C)C(=O)OC[C@]1(C)[C@@H]2CC[C@]3(C)[C@H](CC=C4[C@@H]5CC(C)(C)[C@@H](O)[C@H](O)[C@]5(CO)[C@H](O)C[C@]43C)[C@@]2(C)CC[C@@H]1OC(=O)/C(C)=C\C` [Compound G31], the Cytotoxicity activity was “moderate”.
